# Measurements: patent US11612595B2, “Compositions and methods for treating rheumatoid arthritis” (Generos Biopharma Ltd., priority 2017, dated 2023)
# Legend:
# [1] = test system: collagen-induced arthritis (CIA) model mice; assay: collagen-induced arthritis (CIA) model mice, clinical scores; format: in vivo, DBA/1J mice; set-up: key to Pairwise analysis of the difference between groups (clinical scores), vs Model / Pairwise analysis of the difference between groups (clinical scores), S5i 5 mpk vs S5i 10 mpk: p values from pairwise comparisons
# Description: FIGS. 8A and 8B show graphs depicting clinical score changes in four groups of CIA mouse models under different treatment schemes. In FIG. 8A, different chemicals (DMSO as control for Model group, blank group is left untreated) were daily administered intraperitoneally at the indicated doses from the first injection of the collagen agent. In FIG. 8B, different chemicals were daily administered intraperitoneally from the second injection of collagen agent at the indicated doses. Clinical scores were given double-blindly according to the scoring scheme every 2 days.
# FIGS. 9A and 9B show graphs of clinical scores at day 44 for each group, the overall difference analyzed by ANOVA is significant p<0.0001, while the p value between Model and each individual group is labeled above the bar * p<0.05, ** p<0.01.
# (§1) Eight of nine groups (10 mice in each group) of male DBA/1J mice (age 9-10 weeks. H-2q haplotype) were subject to CIA model induction and then to different treatment schemes. The group of mice without CIA model induction was used as a control (Blank). Specifically, Bovine type II collagen (Chondrex) was mixed with Freund's complete adjuvant (CFA) (Sigma) and injected s.c. to flank near tail of the mice twice (the second injection was made 21 days after the first injection) to create CIA model mice. The eight groups of CIA model mice were separated into four prophylactic groups and four therapeutic groups, with each group subjected to different treatments.
# (§2) In the four prophylactic groups, daily treatments started from the date when the first CIA induction injection was made. The first of the four prophylactic groups of CIA model mice were treated with 30% PEG300 (containing 4% DMSO-all 30% PEG300 in the application contains 4% DMSO) solution via intraperitoneal injection as controls (Model). The second of the four prophylactic groups of CIA model mice were treated with nicotinohydrazide (Calbiochem) 10 mg/kg in 30% PEG300 solution via intraperitoneal injection (573108 10 mg/kg). The third of the four prophylactic groups of CIA model mice were treated with nicotinohydrazide (Calbiochem) 5 mg/kg in 30% PEG300 solution via intraperitoneal injection (573108 5 mg/kg). The last of the four prophylactic groups of CIA model mice were treated with Tofacitinib (Selleckchem) 5 mg/kg in 30% PEG300 solution via intraperitoneal injection (Tofacitinib 5 mg/kg).
# (§3) In the four therapeutic groups, daily treatments started from the date when the second CIA induction injection was made. The first of the four therapeutic groups of CIA model mice were treated with 30% PEG300 solution via intraperitoneal injection as controls (Model). The second of the four therapeutic groups of CIA model mice were treated with nicotinohydrazide (Calbiochem) 10 mg/kg in 30% PEG300 solution via intraperitoncal injection (573108 10 mg/kg). The third of the four therapeutic groups of CIA model mice were treated with nicotinohydrazide (Calbiochem) 5 mg/kg in 30% PEG300 solution via intraperitoneal injection (573108 5 mg/kg). The last of the four therapeutic groups of CIA model mice were treated with Tofacitinib (Selleckchem) 5 mg/kg in 30% PEG300 solution via intraperitoncal injection (Tofacitinib 5 mg/kg).
# (§4) The inventors collected data of the weight, and clinical scores of the mice every 2-3 days and performed statistic analysis. The method used in the statistic analysis was Student's t test, unpaired, two-tailed analysis.
# The clinical scores were derived according to the scheme in Table 2.
# [2] = weight changes in mouse CIA model; format: in vivo, DBA/1J mice
# Experimental: FIGS. 7A and 78 show graphs depicting weight changes in five groups of mouse CIA models under different treatment schemes. DBA/1 mice were randomly divided into 9 groups with 10 mice each group. On day 0 and 21, all of them except blank control group were inoculated with 50 ul collagen plus CFA mixture subcutaneously at back flank near tail. The weights of all 90 mice were monitored 3 times a week throughout the experiment.
# as §1, §2, §3, §4
# [3] = prophylactic groups, 5 mg/kg i.p. daily
# [4] = prophylactic groups, 10 mg/kg i.p. daily
# [5] = therapeutic groups, 5 mg/kg i.p. daily
# [6] = therapeutic groups, 10 mg/kg i.p. daily
structure (smiles),measurement,setting,value
"O=C(N/N=C/c1coc2ccccc2c1=O)c1cccnc1 [nicotinohydrazide, N′-((4-Oxo-4H-chromen-3-yl)methylene)nicotinohydrazide]",clinical scores compared to Model,[1]; [3],reduced clinical scores
same,clinical scores compared to Model,[1]; [4],reduced clinical scores
same,"Pairwise analysis of the difference between groups (clinical scores), vs Model","[1]; prophylactic groups, 5 mpk, Day 28",0.1019
same,"Pairwise analysis of the difference between groups (clinical scores), vs Model","[1]; prophylactic groups, 5 mpk, Day 30",0.0410
same,"Pairwise analysis of the difference between groups (clinical scores), vs Model","[1]; prophylactic groups, 5 mpk, Day 32",0.0740
same,"Pairwise analysis of the difference between groups (clinical scores), vs Model","[1]; prophylactic groups, 5 mpk, Day 35",0.0615
same,"Pairwise analysis of the difference between groups (clinical scores), vs Model","[1]; prophylactic groups, 5 mpk, Day 37",0.1101
same,"Pairwise analysis of the difference between groups (clinical scores), vs Model","[1]; prophylactic groups, 5 mpk, Day 39",0.0010
same,"Pairwise analysis of the difference between groups (clinical scores), vs Model","[1]; prophylactic groups, 5 mpk, Day 42",0.0185
same,"Pairwise analysis of the difference between groups (clinical scores), vs Model","[1]; prophylactic groups, 5 mpk, Day 44",0.2729
same,"Pairwise analysis of the difference between groups (clinical scores), vs Model","[1]; prophylactic groups, 10 mpk, Day 28",0.1491
same,"Pairwise analysis of the difference between groups (clinical scores), vs Model","[1]; prophylactic groups, 10 mpk, Day 30",0.1452
same,"Pairwise analysis of the difference between groups (clinical scores), vs Model","[1]; prophylactic groups, 10 mpk, Day 32",0.1256
same,"Pairwise analysis of the difference between groups (clinical scores), vs Model","[1]; prophylactic groups, 10 mpk, Day 35",0.0354
same,"Pairwise analysis of the difference between groups (clinical scores), vs Model","[1]; prophylactic groups, 10 mpk, Day 37",0.0614
same,"Pairwise analysis of the difference between groups (clinical scores), vs Model","[1]; prophylactic groups, 10 mpk, Day 39",0.0008
same,"Pairwise analysis of the difference between groups (clinical scores), vs Model","[1]; prophylactic groups, 10 mpk, Day 42",0.0033
same,"Pairwise analysis of the difference between groups (clinical scores), vs Model","[1]; prophylactic groups, 10 mpk, Day 44",0.0128
same,"Pairwise analysis of the difference between groups (clinical scores), S5i 5 mpk vs S5i 10 mpk","[1]; prophylactic groups, Day 28",0.7387
same,"Pairwise analysis of the difference between groups (clinical scores), S5i 5 mpk vs S5i 10 mpk","[1]; prophylactic groups, Day 30",0.5943
same,"Pairwise analysis of the difference between groups (clinical scores), S5i 5 mpk vs S5i 10 mpk","[1]; prophylactic groups, Day 32",0.8722
same,"Pairwise analysis of the difference between groups (clinical scores), S5i 5 mpk vs S5i 10 mpk","[1]; prophylactic groups, Day 35",0.7717
same,"Pairwise analysis of the difference between groups (clinical scores), S5i 5 mpk vs S5i 10 mpk","[1]; prophylactic groups, Day 37",0.8686
same,"Pairwise analysis of the difference between groups (clinical scores), S5i 5 mpk vs S5i 10 mpk","[1]; prophylactic groups, Day 39",0.9741
same,"Pairwise analysis of the difference between groups (clinical scores), S5i 5 mpk vs S5i 10 mpk","[1]; prophylactic groups, Day 42",0.1588
same,"Pairwise analysis of the difference between groups (clinical scores), S5i 5 mpk vs S5i 10 mpk","[1]; prophylactic groups, Day 44",0.0717
same,clinical scores compared to Model,[1]; [5],reduced clinical scores
same,clinical scores compared to Model,[1]; [6],reduced clinical scores
same,"Pairwise analysis of the difference between groups (clinical scores), vs Model","[1]; therapeutic groups, 5 mpk, Day 28",0.0117
same,"Pairwise analysis of the difference between groups (clinical scores), vs Model","[1]; therapeutic groups, 5 mpk, Day 30",0.0295
same,"Pairwise analysis of the difference between groups (clinical scores), vs Model","[1]; therapeutic groups, 5 mpk, Day 32",0.0032
same,"Pairwise analysis of the difference between groups (clinical scores), vs Model","[1]; therapeutic groups, 5 mpk, Day 35",0.0025
same,"Pairwise analysis of the difference between groups (clinical scores), vs Model","[1]; therapeutic groups, 5 mpk, Day 37",0.0024
same,"Pairwise analysis of the difference between groups (clinical scores), vs Model","[1]; therapeutic groups, 5 mpk, Day 39",0.0019
same,"Pairwise analysis of the difference between groups (clinical scores), vs Model","[1]; therapeutic groups, 5 mpk, Day 42",0.0044
same,"Pairwise analysis of the difference between groups (clinical scores), vs Model","[1]; therapeutic groups, 5 mpk, Day 44",0.0012
same,"Pairwise analysis of the difference between groups (clinical scores), vs Model","[1]; therapeutic groups, 10 mpk, Day 28",0.0399
same,"Pairwise analysis of the difference between groups (clinical scores), vs Model","[1]; therapeutic groups, 10 mpk, Day 30",0.0190
same,"Pairwise analysis of the difference between groups (clinical scores), vs Model","[1]; therapeutic groups, 10 mpk, Day 32",0.0080
same,"Pairwise analysis of the difference between groups (clinical scores), vs Model","[1]; therapeutic groups, 10 mpk, Day 35",0.1008
same,"Pairwise analysis of the difference between groups (clinical scores), vs Model","[1]; therapeutic groups, 10 mpk, Day 37",0.1336
same,"Pairwise analysis of the difference between groups (clinical scores), vs Model","[1]; therapeutic groups, 10 mpk, Day 39",0.1189
same,"Pairwise analysis of the difference between groups (clinical scores), vs Model","[1]; therapeutic groups, 10 mpk, Day 42",0.0820
same,"Pairwise analysis of the difference between groups (clinical scores), vs Model","[1]; therapeutic groups, 10 mpk, Day 44",0.0397
same,"Pairwise analysis of the difference between groups (clinical scores), S5i 5 mpk vs S5i 10 mpk","[1]; therapeutic groups, Day 28",0.4163
same,"Pairwise analysis of the difference between groups (clinical scores), S5i 5 mpk vs S5i 10 mpk","[1]; therapeutic groups, Day 30",0.8721
same,"Pairwise analysis of the difference between groups (clinical scores), S5i 5 mpk vs S5i 10 mpk","[1]; therapeutic groups, Day 32",0.4838
same,"Pairwise analysis of the difference between groups (clinical scores), S5i 5 mpk vs S5i 10 mpk","[1]; therapeutic groups, Day 35",0.0249
same,"Pairwise analysis of the difference between groups (clinical scores), S5i 5 mpk vs S5i 10 mpk","[1]; therapeutic groups, Day 37",0.0183
same,"Pairwise analysis of the difference between groups (clinical scores), S5i 5 mpk vs S5i 10 mpk","[1]; therapeutic groups, Day 39",0.0183
same,"Pairwise analysis of the difference between groups (clinical scores), S5i 5 mpk vs S5i 10 mpk","[1]; therapeutic groups, Day 42",0.0777
same,"Pairwise analysis of the difference between groups (clinical scores), S5i 5 mpk vs S5i 10 mpk","[1]; therapeutic groups, Day 44",0.0842
same,"trend of weight changes, p vs Model",[2]; [3],0.4638
same,"trend of weight changes, p vs Tofacitinib 5 mg/kg",[2]; [3],0.0136
same,"trend of weight changes, p vs Model",[2]; [4],0.32
same,"trend of weight changes, p vs Tofacitinib 5 mg/kg",[2]; [4],0.0207
same,"trend of weight changes, p vs Model",[2]; [5],< 0.0001
same,"trend of weight changes, p vs Tofacitinib 5 mg/kg",[2]; [5],0.0006
same,"trend of weight changes, p vs Model",[2]; [6],< 0.0001
